The nature of the series: Solubility of squarylium dye in dichloromethane. It is filed as physicochemical. The source says: Subsequent conversion to the squarylium dye can yield desirable photophysical, solubility, thermal stability, and/or light stability properties. For example, as shown in the FIGURE, the ortho-, ortho- isomer of compound IV has a solubility of about 0.2 gm/L in dichloromethane, CH2Cl2. In comparison, the corresponding meta-, meta- and para-, para- isomers of compound have solubilities of about 0.6 gm/L and about 0.5 gm/L in CH2Cl2, respectively.

For the compound `CC1N(Cc2cccc(NC(=O)c3ccccc3)c2)c2cc(NC(=O)c3ccccc3)c(C3=C([O-])/C(=c4/cc5c(cc4NC(=O)c4ccccc4)=[N+](Cc4cccc(NC(=O)c6ccccc6)c4)C(C)C5(C)C)C3=O)cc2C1(C)C` (stereo not drawn) [meta-, meta- isomer of compound IV], the “solubility in dichloromethane, CH2Cl2” value is listed as “about 0.6 gm/L”.

Values taken from patent US9090776B2, “Squarylium dyes” (Exciton, Inc., priority 2012, dated 2015).
